Legend:
human LDL = test: LDL oxidation determination (copper-induced, TBARS formation); assay type: biochemical; settings: 3.0 μM; 4 h incubation; copper 10.0 μM
Procedure: The ability of these agents to inhibit LDL peroxidation was assessed in vitro following addition of copper (10.0 μM) by measuring the levels of thiobarbituric reactive substances (TBARS), a marker of lipid peroxidation. […] The EDTA content of the LDL samples obtained from human plasma was removed by gel filtration with PD-10 Sephadex […] filtration columns; PBS (nitrogen purged) was used as the eluent. The LDL samples (50 μg of protein/mL) were then preincubated with or without drug (3.0 μM) for 30 mm at 37° C. Oxidation of LDL was then induced by the addition of 10.0 μM CuSO4. The time course of LDL oxidation, measured by TBARS formation, was followed for 6 h at 37° C. ([…]. Potentiation of free radical-induced lipid peroxidative injury to sarcolemmal membranes by lipid amphiphiles. J. Biol. Chem. 1986; 261:1153-1157). […] The protein content of the LDL was determined using the Coomassie Protein Plus assay kit from Pierce Chemical. A rapid and sensitive method for the quantitation of microgram quantities of protein utilizing the principle of protein-dye binding. Anal. Biochem. 1976; 72:248-254).

[1] = Small angle X-ray diffraction analysis of membrane bilayer structure; assay type: physicochemical; settings: drug to phospholipid 1:15; for overall membrane bilayer width, including surface hydration: without drug 55.5 Å
Procedure: The lipids (1-palmitoyl-2-oleoyl phosphatidylcholine and cholesterol) used for these samples were dissolved in HPLC-grade chloroform (10.0 mg/ml). Membrane vesicles were produced from these lipids by the same method as described for the peroxidation experiments. The final phospholipid concentration was 5.0 mg/ml buffer and the mole ratio of drug to phospholipid was 1:15. Membrane samples were oriented for diffraction analysis by subjecting them to centrifugation as previously described (Chester D W, Herbette L G, Mason R P, Joslyn A F, Triggle D J, Koppel D E. Diffusion of dihydropyridine calcium channel antagonists in cardiac sarcolemmal lipid multibilayers. Biophys. J. 1987; 52:1021–1030). Briefly, vesicles were placed in sedimentation cells that contained an aluminum foil substrate. The vesicles were sedimented in an SW-28 rotor (Beckman Instruments Fullerton, Calif.) at 35,000×g for 1.5 h at 5° C. Following centrifugation, the supernatant was removed from the pellets and the samples were then mounted on to curved glass supports. Samples were placed in sealed canisters to control relative humidity and temperature during the diffraction experiments, as previously described in detail (Chester D W, Herbette L G, Mason R P, Joslyn A F, Triggle D J, Koppel D E. Diffusion of dihydropyridine calcium channel antagonists in cardiac sarcolemmal lipid multibilayers. Biophys. J. 1987; 52: 1021–1030).
X-ray diffraction experiments were conducted by aligning the samples at grazing incidence with respect to a collimated, nickel-filtered monochromatic X-ray source (CuKα1.54 Å) produced by a high-brilliance rotating anode microfocus generator (Rigaku Rotaflex RU-200, Danvers, Mass.). The fixed geometry beam line consisted of a single, nickel-coated Franks mirror to define a line source where Kα and Kα are unresolved. […] The phases for the four-order data were determined by swelling analysis (Moody M F. X-ray diffraction pattern of nerve myelin: A method for determining the phases. Science 1963; 142:1173–117). […]

[2] = Membrane lipid peroxidation analysis (CHOD-Iodide assay) in membrane vesicles; assay type: biochemical
Procedure: In these experiments, oxidation occurred in a gradual, time-dependent manner that was measured spectrophotometrically over a 72 h period.
The separate and combined dose-dependent antioxidant activities of these agents were examined in membranes enriched with PUFA prepared at a 0.5 cholesterol to phospholipid mole ratio (Mason R P, Walter M F, Trumbore M W, Olmstead Jr. E G, Mason P E. Membrane antioxidant effects of the charged dihydropyridine calcium antagonist amlodipine. J. Mol Cell. Cardiol. 1999; 31:275–281). The lipid (dilinoleoyl phosphatidylcholine and cholesterol) used for these samples was dissolved in HPLC-grade chloroform (25.0 mg/ml). […]
Membrane lipid peroxidation was carried out at 37° C. in a shaking water bath without the addition of exogenous stimulants, as previously described in detail (Mason R P, Walter M F, Trumbore M W, Olmstead Jr. E G, Mason P E. Membrane antioxidant effects of the charged dihydropyridine calcium antagonist amlodipine. J. Mol. Cell. Cardiol. 1999; 31:275–281). […] The extent of membrane lipid peroxidation was measured by the CHOD-Iodide assay as previously described in detail (El-Saadani M, Esterbauer H, el-Sayed M, Goher M, Nassar A Y, Jurgens G. A spectrophotometric assay for lipid peroxides in serum lipoproteins using a commercially available reagent. J. Lipid. Res. 1989; 30:627–630). […]

overall membrane bilayer width, including surface hydration [1] [Å] | SMILES | TBARS formation compared to control lipid peroxidation (100%) (human LDL) [%] | effect on membrane dimensions, in words ([1]; includes intrabilayer headgroup separation) | inhibition of lipid peroxidation ([2]; 100.0 nM, membrane preparation enriched with cholesterol) [%] | persistence of antioxidant effect over time ([2]; 10.0 μM, incubation up to 72 h)
54.8 | CCOC(=O)C1=C(COCCN)NC(C)=C(C(=O)OC)C1c1ccccc1Cl (stereo not shown) [AML, amlodipine besylate] | 93.3±6 | did not significantly alter membrane dimensions | – | –
58.0 | CC(C)c1c(C(=O)Nc2ccccc2O)c(-c2ccccc2)c(-c2ccc(F)cc2)n1CCC(O)CC(O)CC(=O)O (stereo not shown) [ATM, ortho-hydroxy metabolite of atorvastatin] | 65.6±7 | – | 9 | –
– | Cc1c(C)c2c(c(C)c1O)CC[C@@](C)(CCC[C@H](C)CCC[C@H](C)CCCC(C)C)O2 [vitamin E, α-tocopherol] | – | – | – | could not be reproduced

— patent publication US7129265B2, “Synergistic effects of amlodipine and atorvastatin metabolite as a basis for combination therapy” (priority 1999, dated 2006)
